Here are results for 3 compounds from patent publication US4585773A, “Isoindolinyl-alkyl-piperazines” (Bristol-Myers Company, priority 1984, dated 1986).

SMILES strings stand for the structures. Structures can show the parent of a compound that is named as a salt. Where two headings read alike, the source gives them in different places.

The subject of one experiment is α2. Put plainly: in vitro α2 binding, [3H]Clonidine (Table IV). To be noted: for IC50: [3H]Clonidine, brain tissue, 50 mM Hepes.KOH, pH 7.4, read-out: α2 Binding IC50. On the procedure:
(§1) In this Example the compounds of Examples I-XI were tested in vitro for α1 and α2 binding. The compound of Example I was tested as its monochloride 2-propanolate hydrate, i.e. as C22 […] CLN4 O4 S .HCl.0.2(CH3)2 CHOH 0.15H2 O. In the testing specific brain tissues were prepared as sources of binding sites. Aliquots of the washed members are incubated with a low concentration of […]. After incubation at suitable temperature, the reaction mixture is treated to separate the membrane-bound radioligand Radioactivity is measured. Linear regression analysis of the probit value for the percent of binding occurring in the presence of varying concentrations of the compound of interest plotted against the concentration of the compound yields concentrations which inhibit 50% specific binding, the IC50. The assay buffer is 50 mM Hepes.KOH, pH 7.4. The ligand is [^3 H]WB-4101 from New England Nuclear for α1 and [^3 H]Clonidine from New England Nuclear for α2. The results are considered against phentolamine methanesulfonate (Reference) which is considered a good α-binder.

A further experiment deals with α1. Description: in vitro α1 binding, [3H]WB-4101 (Table IV). To be noted: [3H]WB-4101, brain tissue, 50 mM Hepes.KOH, pH 7.4; read-out: α1 Binding IC50. On the procedure:
as §1

Experiment [1] in a line: conscious rat diuretic screen of Lipschitz (Table I). The experiment is classed as in vivo, rat (female Sprague Dawley; male Okamoto-Aoki). The conditions noted are these: female Sprague Dawley rats; for response vs control in vivo at 30 mg/kg / response vs control in vivo at 3 mg/kg: Rattus norvegicus, po. Here is the method: With respect to diuretic utility there can be mentioned the conscious rat diuretic screen of Lipschitz, et al. (J. Pharmacol. Exp. Therap. 79, 97-110 (1943)). In this test, dose response assays of diuretic, natruiretic and kaliuretic activity are determined by oral administration of the test substance. The compounds synthesized in Examples I-XI were tested for diuretic […]. The compound of Example I was tested as its monohydrochloride 2-propanolate hydrate, i.e. as C22 […] ClN4 O4 S.HCl. 0.2(CH3)2 CHOH.0.15H2 O. Testing was carried out by the diuretic screen of Lipschitz, et al. described previously. In Table I below Volume Ratio is the ratio of total volume excreted for the test comuound compared to the total volume excreted for the control, Na^+ Ratio is the Na^+ excreted for the test compound compared to the Na^+ excreted for the control, K^+ Ratio is the K^+ excreted for the test compound compared to the K^+ excreted for the control. Female Sprague Dawley rats were used in Test Nos. 1, 2, 6, 7, 11-29. Male Okamoto-Aoki rats were used in Test Nos. 3-5 and 8-10 and testing for antihypertensive activity was carried out simultaneously on the Test Nos. 3-5 rats. In some instances, compounds were retested at the same dose level.

Experiment [2] relates to α blocking activity (phenylephrine). Description: in vivo α blocking activity, phenylephrine (PE) as α-agonist (Table III). On the set-up: species or system rat; ED50: unit not given beside the values. The conditions noted are these: for in vivo α blocking activity (in words): conclusion from Table III; for ED50: iv. On the procedure:
(§2) In this example the compounds of Examples I (modified), II, III, V, VI, VII, VIII, IX and XI were tested in rats for in vivo α blocking activity according to methodology described at page 312 of Deitchman, et al., Journal of Pharmacological Methods, 3, 311-321 (1980). In this test phenylephrine (PE below) or norepinephrine (NE below) was administered as an α-agonist to the rats before and after dosing with the test drug and the average interpolated dose or PE/NE effecting a 50 mm Hg increase in mean arterial blood pressure was determined. Table III below records the results. In such Table, ED50 stands for such average interpolated dose and Average Dose Shift stands for the average ratio of ED50 after drug administration to ED50 before drug administration. The compound of Example I was tested as its monochloride 2-propanolate hydrate, i.e. as C22 H27 ClN4 O4 S.HCl 0.2(CH3)2 CHOH.0.15H2 O in Tests 1-5 and as the 3/4 mole hydrochloride, i.e. C22 H27 ClN 4 O4 S.3/4HCL in Tests 2a and 3a. The route was intravenous except in the case of the runs of Test Nos. 2a, 3, 3a, 26-29 the route was oral.

Experiment [3] deals with DOCA-salt Hypertensive Rat. Put plainly: antihypertensive activity, DOCA-salt Hypertensive Rat (Table II). The experiment is classed as in vivo. The conditions noted are these: DOCA. Here is the method:
DOCA-salt Hypertensive Rat
Male rats initially weighing 80-100 g, are made hypertensive by surgically implanting two 50 mg pellets of deoxycorticosterone acetate (DOCA) under the skin of the abdomen of each rat and providing 1% saline ad libitum. After three weeks, the 1% saline is replaced with distilled water. One week later, animals are anesthetized with methoxyflurane and a catheter advanced into the aorta via the left common corotid artery to record mean arterial blood pressure (MABP) and heart rate. The heparin-filled catheter is passed beneath the skin and exteriorized behind the head. Two days later, MABP and heart rate are determined before and four hours after oral administration of vehicle (0.25% Methocel in 0.9% saline) or test compound suspended in vehicle at a dose volume equivalent to 5 ml/kg.
Testing was carried out on the compounds of Examples I-XII for antihypertensive activity. In the case of all the compounds testing was carried out on the Spontaneously Hypertensive rat as described hereinbefore. In the case of the compounds of Examples I-IV testing was also carried out on the DOCA-salt Hypertensive Rat. The compound of Example I was tested as its monochloride 2-propanolate hydrate, i.e. as C22 H27 ClN4 O4 S.HCl.0.2(CH3)2 CHOH.0.15H2 O in Tests 1-5; and as the 3/4 mole hydrochloride, i.e. C22 H27 ClN4 O4 S: 3/4 HCl in Tests 3a, 4a, 5a-5d. Test results are set forth in Table II below wherein SHR stands for Spontaneously Hypertensive rat, DOCA stands for DOCA-salt Hypertensive Rat, ΔBP stands for the change in systolic blood pressure in mm Hg, ΔHR stands for the change in mean heart rate in beats per minute and the times set forth are the times after dosing. A peak change in ΔBP of more than 20 is considered as indicating activity.

The test system of experiment [4] is Spontaneously Hypertensive rat. Description: antihypertensive activity, Spontaneously Hypertensive Rat (Table II). To be noted: for ΔBP 2 hours / ΔBP 4 hours / ΔHR 2 hours / ΔHR 4 hours: SHR, 30 mg/kg oral; for antihypertensive effect (in words): conclusion from Table II (SHR, and DOCA for Examples I-IV). It counts as in vivo. On the procedure:
Spontaneously Hypertensive Rat Male rats weighing 300-400 g, previously conditioned to the procedure, are prewarmed in a heating chamber (30° C.) for 10-20 min. and subsequently restrained in a wire holder at that temperature. Systolic blood pressure and heart rate are measured by the tailcuff technique using a pneumatic pulse transducer and a biotachometer before, and 2, 4, and 24 hours after oral administration of vehicle (0.25% Methocel in water) or test compounds suspended in vehicle at a dose volume equivalent to 5 ml/kg. Blood pressure and heart rate data are reported as changes from zero-hour measurements with vehicle control groups run periodically to confirm that the vehicle has no effect. Testing was carried out on the compounds of Examples I-XII for antihypertensive activity. In the case of all the compounds testing was carried out on the Spontaneously Hypertensive rat as described hereinbefore. In the case of the compounds of Examples I-IV testing was also carried out on the DOCA-salt Hypertensive Rat. The compound of Example I was tested as its monochloride 2-propanolate hydrate, i.e. as C22 […] ClN4 O4 S.HCl.0.2(CH3)2 CHOH.0.15H2 O in Tests 1-5; and as the 3/4 mole hydrochloride, i.e. C22 […] ClN4 O4 S: 3/4 HCl in Tests 3a, 4a, 5a-5d. Test results are set forth in Table II below wherein SHR stands for Spontaneously Hypertensive rat, DOCA stands for DOCA-salt Hypertensive Rat, ΔBP stands for the change in systolic blood pressure in mm Hg, ΔHR stands for the change in mean heart rate in beats per minute and the times set forth are the times after dosing. A peak change in ΔBP of more than 20 is considered as indicating activity.

The subject of experiment [5] is α blocking activity (norepinephrine). Put plainly: in vivo α blocking activity, norepinephrine (NE) as α-agonist (Table III). On the set-up: species or system rat. The conditions noted are these: ED50 after/before drug. Here is the method: as §2
The mark [6] stands for this setting: 30 mg/kg oral, read-out: K+ Ratio.
The mark [7] stands for this setting: 30 mg/kg oral, read-out: Na+ Ratio.
The mark [8] stands for this setting: 30 mg/kg oral, read-out: Volume Ratio.
[9] abbreviates: 3 mg/kg oral, read-out: K+ Ratio.
The mark [10] stands for this setting: 3 mg/kg oral, read-out: Na+ Ratio.
Where [11] appears, read: 3 mg/kg oral, read-out: Volume Ratio.

For `NS(=O)(=O)c1cc2c(cc1Cl)CN(CCCN1CCN(c3cccc(Cl)c3)CC1)C2=O` [Example II, 6-Chloro-2-[3-[4-(3-chlorophenyl)-1-piperazinyl]propyl]-2,3-dihydro-3-oxo-1H-isoindole-5-sulfonamide hydrochloride hemihydrate], in the experiment with α2, the “α2 binding activity (in words)” value is listed as “α2 binding activity” and the half-maximal inhibitory concentration (IC50) was found to be 694 nM. In addition, the IC50 on α1 is 7.62 nM. Also, the “Urinary Na/K (Test Compound)” value in experiment [1] (30 mg/kg oral) is recorded as 3.41. For the same compound, in experiment [1] (setting [6]), the response vs control in vivo at 30 mg/kg is 129%. For the same compound, the response vs control in vivo at 30 mg/kg in experiment [1] (setting [7]) stood at 143%. For the same compound, the response vs control in vivo at 30 mg/kg in experiment [1] (setting [8]) was 117%. Moreover, the “Average Dose Shift” value in experiment [2] (ED50 after/before drug, PE, dose 10, intravenous) is reported as greater than 200. For the same compound, in experiment [2], the “in vivo α blocking activity (in words)” value is “active as in vivo α blockers” and the ED50 was found to be 34.0. In experiment [3] (30 mg/kg oral), the “ΔBP 4 hours” value is on record as -33 ± 5 mm Hg and the “ΔHR 4 hours” value was 22 ± 17 beats per minute. In experiment [4], the “ΔBP 2 hours” value is -23 ± 4 mm Hg, the “ΔBP 4 hours” value is reported as -18 ± 7 mm Hg, the “ΔHR 2 hours” value is on record as -18 ± 10 beats per minute and the “ΔHR 4 hours” value was -4 ± 16 beats per minute. Moreover, the “antihypertensive effect (in words)” value in experiment [4] was “good antihypertensive effect without significantly affecting heart rate”.

On to `Cc1ccccc1N1CCN(CCCN2Cc3cc(Cl)c(S(N)(=O)=O)cc3C2=O)CC1` [Example IV, 6-Chloro-2,3-dihydro-2-[3-[4-(2-methylphenyl)-1-piperazinyl]propyl]-3-oxo-1H-isoindole-5-sulfonamide], for which the half-inhibitory concentration (IC50) is 1430 nM on α2 and 4.16 nM on α1. For the same compound, in experiment [1] (3 mg/kg oral), the “Urinary Na/K (Test Compound)” value amounted to 3.49. Also, the response vs control in vivo at 3 mg/kg in experiment [1] (setting [9]) was found to be 97%; in experiment [1] (setting [10]), 123%; in experiment [1] (setting [11]) it was 104%. Also, the results for the response vs control in vivo at 30 mg/kg in experiment [1] (setting [6]) and in experiment [1] (setting [7]) were 117% and 121%, respectively. The “ΔBP 4 hours” value in experiment [3] (0.3 mg/kg oral) is reported as -8 ± 3 mm Hg; in experiment [3] (3 mg/kg oral), -31 ± 7 mm Hg; in experiment [3] (30 mg/kg oral), -79 ± 4 mm Hg; in experiment [4] it was -53 ± 7 mm Hg. For the same compound, the “ΔHR 4 hours” value in experiment [3] (0.3 mg/kg oral) is 13 ± 21 beats per minute; in experiment [3] (3 mg/kg oral), 22 ± 9 beats per minute; in experiment [3] (30 mg/kg oral), 18 ± 13 beats per minute; in experiment [4], -22 ± 22 beats per minute. In addition, the “ΔBP 2 hours” value in experiment [4] is -48 ± 19 mm Hg. In addition, the “ΔHR 2 hours” value in experiment [4] was -36 ± 5 beats per minute. The “antihypertensive effect (in words)” value in experiment [4] is listed as “good antihypertensive effect without significantly affecting heart rate”.

Consider `COc1ccccc1N1CCN(CCCCN2Cc3cc(Cl)c(S(N)(=O)=O)cc3C2=O)CC1` [Example XI, 6-Chloro-2,3-dihydro-2-[4-[4-(2-methoxyphenyl)-1-piperazinyl]butyl]-3-oxo-1H-isoindole-5-sulfonamide], for which the “Average Dose Shift” value came out at 5 ± 0.5 in experiment [5] (dose 0.3, intravenous); 27 ± 28 in experiment [5] (dose 1.0, intravenous); 63 ± 19 in experiment [5] (dose 3, intravenous). The “Urinary Na/K (Test Compound)” value in experiment [1] (3 mg/kg oral) came out at 3.09; in experiment [1] (30 mg/kg oral), 2.62. The response vs control in vivo at 3 mg/kg in experiment [1] (setting [9]) was determined as 111%; in experiment [1] (setting [10]), 113%; in experiment [1] (setting [11]), 108%. The response vs control in vivo at 30 mg/kg in experiment [1] (setting [6]) was 137%; in experiment [1] (setting [7]) it was 117%; in experiment [1] (setting [8]) it was 94%. In addition, the “in vivo α blocking activity (in words)” value in experiment [2] is on record as “active as in vivo α blockers”. Also, the ED50 in experiment [2] is reported as 375. Moreover, in experiment [4], the “ΔBP 2 hours” value is listed as -94 ± 10 mm Hg. Besides, the “ΔBP 4 hours” value in experiment [4] is reported as -60 ± 21 mm Hg. In experiment [4], the “ΔHR 2 hours” value is listed as -2 ± 8 beats per minute. Moreover, the “ΔHR 4 hours” value in experiment [4] is -22 ± 14 beats per minute. Besides, in experiment [4], the “antihypertensive effect (in words)” value is “good antihypertensive effect without significantly affecting heart rate”.

In general, IC50 refers to the concentration that inhibits the measured activity by half.
